Laboratory results taken from patent publication US20210345607A1, “MICROEMULSION FORMULATION CONTAINING CLACYFOS HERBICIDE, PREPARATION METHOD THEREFOR AND USE THEREOF” (Central China Normal University, priority 2018, published 2021).

Tests used:
[1] = tested on: Setaria viridis(L.) Beauv; test: Inhibitory activity of clacyfos against 22 plants or weeds (B12); conditions: in vivo
Description: (§1) Combining the results of indoor and field tests of clacyfos, the herbicidal spectrum of clacyfos can be summarized as follows:
(§2) Echinochloa crusgalli Beava; Digitaria Sanguinalis scop; Alopecurus aequalis; Alopecurus japonicus steud; Setaria viridis; Cynodon dactylon; Eleusine indica; Leptochloa chinensis; Arthraxon hispidus; Eleusine indica; Imperata cyllndrlca; Cyperus difformis; Cyperus iria; Kyllinga brevifolia; Poa cnnua; Monochoria vaginalis; Potamogeton distinctus; Sagittaria pygmaea; Cyperus iria; Eleocharis yokoscensis; Digitaria adscendens; Equisetum arvenense.

[2] = tested on: Abutilontheophrasti Medicus; test: as above; conditions: in vivo
Description: as §1, §2

Eclipta prostrata L. = test: as above; conditions: in vivo
Description: as §1, §2

Cyperus microiria = test: as above; conditions: in vivo
Description: as §1, §2

Sinapis alba = test: as above; conditions: in vivo
Description: as §1, §2

Amaranthus retroflexus = test: as above; conditions: in vivo
Description: as §1, §2

[3] = tested on: Alopecurus aequalis Sobol; test: as above; conditions: in vivo
Description: as §1, §2

Rumex crispus L. = test: as above; conditions: in vivo
Description: as §1, §2

Herba Cirsii Jeponici = test: as above; conditions: in vivo
Description: as §1, §2

Beta Vulgaris = test: as above; conditions: in vivo
Description: as §1, §2

Brassica campestris = test: as above; conditions: in vivo
Description: as §1, §2

Poa annua L. = test: as above; conditions: in vivo
Description: as §1, §2

Ipomoea heperacea = test: as above; conditions: in vivo
Description: as §1, §2

Chenopodium album L. = test: as above; conditions: in vivo
Description: as §1, §2

[4] = tested on: Eleusine indica (L.) Gaertn; test: as above; conditions: in vivo
Description: as §1, §2

Daucus carota L. = test: as above; conditions: in vivo
Description: as §1, §2

Medicago saliva = test: as above; conditions: in vivo
Description: as §1, §2

[5] = tested on: Amaranthus rebroflexus L.; test: as above; conditions: in vivo
Description: as §1, §2

Galium aparine = test: as above; conditions: in vivo
Description: as §1, §2

[6] = tested on: Digitaria sanguinalis(L.) Scop; test: as above; conditions: in vivo
Description: as §1, §2

[7] = tested on: Echinochloa crusgalli (L.); test: as above; conditions: in vivo
Description: as §1, §2

Brassica pekinensis = test: as above; conditions: in vivo
Description: as §1, §2

[8] = tested on: Dicotyledonous and sedge weeds; test: Clacyfos weeding spectrum, indoor and field tests (B12); format: in vivo; conditions: recommended dosage of 450 g/hm^2
Description: Combining the results of indoor and field tests of clacyfos, the herbicidal spectrum of clacyfos can be summarized as follows: […]

monocotyledonous weeds = test: as above; format: in vivo; conditions: 700 g/hm^2 to 800 g/hm^2
Description: as §1, §2

wheat = test: Safety of 15% and 25% clacyfos microemulsion used in wheat fields, increase in production (B9); format: in vivo
Description: The microemulsion of 15% clacyfos (the amount of clacyfos added is 15%, the preparation process is referred to preparation example A3) is in the dosage range of 180 g/hm^2 to 600 g/hm^2. The microemulsion of 25% clacyfos (the addition amount of the clacyfos is 25%, the preparation process is referred to preparation example A7) is in the dosage range of 150 g/hm^2 to 720 g/hm^2. At various testing areas, clacyfos was used by stems and leaves treatment of wheat field wheat seedlings.

Question: What does the source list for `COP(=O)(OC)C(C)OC(=O)COc1ccc(Cl)cc1Cl` (centres unmarked) [clacyfos, O, O-dimethyl-1-(2,4-dichlorophenoxyacetoxy) ethyl phosphonate]?
Answer: Visual activity [1]: 50%; Sensitivity [2]: Sensitive; Visual activity [2]: 85%; Visual activity (Eclipta prostrata L.): 100%; Sensitivity (Cyperus microiria): Sensitive; Visual activity (Cyperus microiria): 90%; Visual activity (Sinapis alba): 95%; Visual activity (Amaranthus retroflexus): 100%; Sensitivity [3]: Resistance; Visual activity [3]: 0%; Sensitivity (Rumex crispus L.): Sensitive; Visual activity (Rumex crispus L.): 80%; Visual activity (Herba Cirsii Jeponici): 100%; Visual activity (Beta Vulgaris): 95%; Visual activity (Brassica campestris): 100%; Visual activity (Poa annua L.): 50%; Visual activity (Ipomoea heperacea): 100%; Visual activity (Chenopodium album L.): 100%; Visual activity [4]: 100%; Visual activity (Daucus carota L.): 100%; Sensitivity (Medicago saliva): Sensitive; Visual activity (Medicago saliva): 90%; Visual activity [5]: 100%; Visual activity (Galium aparine): 60%; Visual activity [6]: 40%; Visual activity [7]: 30%; Visual activity (Brassica pekinensis): 100%; control of the dicotyledonous and sedge weeds listed [8]: can be effectively controlled; control of the monocotyledonous weeds listed (monocotyledonous weeds): can be controlled

Question: Which results are given for `Cc1cc(Cl)ccc1OCC(=O)O` [2-methyl-4-chlorophenoxyacetic acid]?
Answer: Increase in production compared with the control agent (wheat; Henan, 32.5 g/mu): acid 32.5 g (5.51%); phytotoxicity to wheat (wheat; Henan, 32.5 g/mu): a certain phytotoxicity; Increase in production compared with the control agent (wheat; Zaoyang, 40 g/mu): acid 40 g (20.91%)
